Measurements taken from patent US20070099841A1, “Prodrugs of T3 and T4 with enhanced bioavailability” (New River Pharmaceuticals Inc., priority 2005, published 2007).
Several values for one entry are separate records, joined by “and”; a condition that tells them apart may be missing. Equal entries are not always repeated. Where two headings read alike, the source gives them in different places.

Legend:
[1] = design: species or system Sprague-Dawley rats; conditions: rat, in vivo
Protocol: Compounds were tested in Sprague-dawley rats (˜250 g). Defined doses were delivered as oral solutions in 0.5% sodium bicarbonate buffer with T3 sodium salt containing 12 mcgT3/kg or triiodothyronine composition containing the equivalent amount of T3. Rats were dosed immediately following 0 hour serum collection. Serum was collected from rats at 2, 4, 6, 9, 12 and 24 hours after capsule delivery. Total serum T3 concentrations were determined by ELISA using a commercially available kit (Total Triiodothyronine (total T3) ELISA KIT, product #1700, ALPHA DIAGNOSTIC, San Antonio, Tex.). Total serum T4 concentrations were determined by ELISA using a commercially available kit (Total Thyronine (Total T4) ELISA KIT, product #1100, ALPHA DIAGNOSTIC, San Antonio, Tex.).
The general procedures described above were employed for the experimental data described below. These procedures are subject to minor variations in timing and weight of rats, etc.
(§1) T3 sodium, G-T3, V-T3, I-T3, Y-T3, A2-T3, P2-T3, or F2-T3 were administered at equimolar doses to Sprague-Dawley rats (12 μg/kg T3; HED˜120 μg T3 sodium; n=6, per group) that were hypothyroid due to removal of the thyroid gland approximately one week prior to evaluation. Serum was collected at 0 (pre-dose), 1, 2, 4, 6, 8 and 12 hours post-dose and analyzed for total T3 and TSH by chemiluminescent immunoassay (Immulite CIA). […] At 1 hour post dose the mean level of Total T3 was 327.3, 429.5, 432.7, 403.3, 431, and 433.1 ng/ml for G-T3, V-T3, I-T3, Y-T3, P2-T3, and F2-T3 dosed animals respectively as compared to 577 ng/ml for T3 sodium dosed animals. Applicants note that some variation in these values may be present as with A2-T3 (FIGS. 15 and 16).

TSH = assay: Serum TSH after oral administration to hypothyroid rats (chemiluminescent immunoassay); assay type: in vivo, Sprague-Dawley rats; conditions: for TSH, mean: mean n=6, oral 12 μg/kg T3; for Individual animal TSH: individual animals 1-6, oral 12 μg/kg T3, hydrochloride salt
Protocol: as §1

SMILES	Total T3 AUC, % (of T3) [1] [%]	Total T3Δ dAUC, % (of T3) [1] [%]	TSH, mean (TSH; 0 h (pre-dose)) [μIU]	TSH, mean (TSH; 1 h) [μIU]	TSH, mean (TSH; 2 h) [μIU]	TSH, mean (TSH; 4 h) [μIU]	TSH, mean (TSH; 6 h) [μIU]	TSH, mean (TSH; 8 h) [μIU]	TSH, mean (TSH; 12 h) [μIU]	TSH levels in response to administration (TSH; oral 12 μg/kg T3)	Variability of T3 absorption compared with T3 sodium [1]	mean level of Total T3 at 1 hour post dose ([1]; po) [ng/mL]	other results
C[C@H](N)C(=O)N[C@@H](C)C(=O)N[C@@H](Cc1cc(I)c(Oc2ccc(O)c(I)c2)c(I)c1)C(=O)O [A2-T3]	104.4	113.4	2.459	2.11	0.889	0.292	0.174	0.182	0.381	decreased rapidly			
N[C@@H](Cc1ccccc1)C(=O)N[C@@H](Cc1ccccc1)C(=O)N[C@@H](Cc1cc(I)c(Oc2ccc(O)c(I)c2)c(I)c1)C(=O)O [F2-T3]	88.3	94.7	3.035	2.192	1.364	0.405	0.246	0.242	0.757	decreased rapidly	decreased variability of T3 absorption	433.1	
Cl.NCC(=O)NC(Cc1cc(I)c(Oc2ccc(O)c(I)c2)c(I)c1)C(=O)O (centres unmarked) [G-T3, 2-(2-aminoacetoamido)-3-(4-(4-hydroxy-3-iodophenoxy)-3,5-diiodophenyl) propanoic acid, hydrochloride salt]			2.021	2.098	1.289	0.292	0.162	0.151	0.427				Tmax, % T3 ([1]; Sprague-Dawley): 125%; Total T3 AUC, % (of T3) ([1]; Sprague-Dawley): 88.1%; Total T3 AUClast, % T3 ([1]; Sprague-Dawley): 89%; Total T3 Cmax, % T3 ([1]; Sprague-Dawley): 79%; Total T3Δ AUClast, % T3 ([1]; Sprague-Dawley): 89%; Total T3Δ Cmax, % T3 ([1]; Sprague-Dawley): 78%; Total T3Δ dAUC, % (of T3) ([1]; Sprague-Dawley): 90.9%; Variability of T3 absorption compared with T3 sodium ([1]; Sprague-Dawley): decreased variability of T3 absorption; Release / absorption of T3 compared with T3 sodium ([1]; Sprague-Dawley, po): delayed release of T3; mean level of Total T3 at 1 hour post dose ([1]; Sprague-Dawley, po, 1 h): 327.3 ng/mL; Individual animal TSH (TSH; 0 h (pre-dose)): 1.680 μIU and 2.584 μIU and 2.304 μIU and 1.956 μIU and 1.860 μIU and 1.740 μIU; Individual animal TSH (TSH; 1 h): 2.660 μIU and 2.564 μIU and 2.392 μIU and 1.960 μIU and 1.612 μIU and 1.400 μIU; Individual animal TSH (TSH; 2 h): 1.340 μIU and 1.472 μIU and 1.648 μIU and 1.160 μIU and 1.104 μIU and 1.008 μIU; Individual animal TSH (TSH; 4 h): 0.364 μIU and 0.352 μIU and 0.296 μIU and 0.216 μIU and 0.276 μIU and 0.248 μIU; Individual animal TSH (TSH; 6 h): 0.232 μIU and 0.172 μIU and 0.152 μIU and 0.112 μIU and 0.205 μIU and 0.100 μIU; Individual animal TSH (TSH; 8 h): 0.232 μIU and 0.172 μIU and 0.136 μIU and 0.124 μIU and 0.168 μIU and 0.076 μIU; Individual animal TSH (TSH; 12 h): 0.540 μIU and 0.612 μIU and 0.224 μIU and 0.548 μIU and 0.268 μIU and 0.372 μIU; TSH levels in response to administration (TSH; oral 12 μg/kg T3, hydrochloride salt): decreased rapidly
CC[C@H](C)[C@H](N)C(=O)N[C@@H](Cc1cc(I)c(Oc2ccc(O)c(I)c2)c(I)c1)C(=O)O [I-T3]	96.6	100.8	2.331	2.218	1.203	0.351	0.169	0.131	0.271	decreased rapidly	decreased variability of T3 absorption	432.7	
